41 compounds from PubChem BioAssay AID1996 can be followed below.

Structures are written as SMILES. Converted amounts (≈) assume the structure as drawn.

For this series the following is noted: buffer; pH 7.4; 200.0 µM.
Take `Cc1ccc(NC(=O)CN2C(=O)NC(C)(c3ccc4c(c3)OCO4)C2=O)cc1` (stereo unspecified): the kinetic solubility was over 57.2 µg/mL.

`Cc1cccc(OC(C)C(=O)OCC(=O)N2CCN(c3ccccc3)CC2)c1` (stereo unspecified): the solubility (kinetic) was 43.4 µg/mL (≈ 113 µM).

On to `CCN1CCN(Cc2c3ccccc3cc3ccccc23)CC1`, for which the kinetic solubility is 27.9 µg/mL (≈ 91.6 µM).

As for `Nc1c(Br)cc(Br)cc1CNC1CCC(O)CC1` (stereo unspecified), the solubility (kinetic) is over 56.7 µg/mL.

As for `Cc1nc(C)c(-c2csc(Nc3ccc(O)cc3C)n2)s1`, the solubility (kinetic) is under 0.2 µg/mL.

Turning to `Cc1csc(NC(=O)CSc2nccn2Cc2ccco2)n1`, the kinetic solubility was 47.7 µg/mL (≈ 143 µM).

As to `O=C(c1c(F)cccc1F)N(C1CCCCC1)C1CCCCC1`, the kinetic solubility was found to be 1 µg/mL (≈ 3.11 µM).

Take `Cc1cc(C)cc(NC(=O)CCN2CCOCC2)c1`: the solubility (kinetic) is over 39.4 µg/mL.

As to `O=C(Nc1nc(-c2cccnc2)cs1)c1ccccc1F`, the kinetic solubility is under 0.2 µg/mL.

In turn, `Cc1ccc(NC(=O)C2CCCN2C(=O)NCc2ccccc2)cc1` (stereo unspecified) came in with a kinetic solubility of 5 µg/mL (≈ 14.8 µM).

Consider `O=C(O)CCNc1ccc(Cl)cc1`, for which the kinetic solubility was over 29.9 µg/mL.

For the compound `COc1cc(NC(=O)N[C@@H](CCSC)C(=O)O)cc(OC)c1`, the solubility (kinetic) is over 49.3 µg/mL.

`CCN(C(=O)CSc1nc2scc(-c3ccccc3)c2c(=O)n1C)C1CCS(=O)(=O)C1` (stereo unspecified): the kinetic solubility is 3.1 µg/mL (≈ 6.49 µM).

`CCOC(=O)C1CCCNC1=O` (stereo unspecified) registered a solubility (kinetic) of over 25.7 µg/mL.

Compound `Cc1ccc(N2CC(C(=O)NC3CCC(C)CC3)CC2=O)cc1` (stereo unspecified) showed a solubility (kinetic) of 2.5 µg/mL (≈ 7.95 µM).

Regarding `CCOC(=O)Cc1csc(NC(=O)CN2CCN(c3ccccc3)CC2)n1`, the solubility (kinetic) stood at 44.6 µg/mL (≈ 115 µM).

Compound `Cc1cc(OCCCn2ccnc2)cc(C(C)C)c1` had a kinetic solubility of 23.3 µg/mL (≈ 90.2 µM).

Compound `Nc1ccc(N2CCOCC2)c(S(=O)(=O)Nc2ccccc2Cl)c1` gave a kinetic solubility of 31.7 µg/mL (≈ 86.2 µM).

Compound `S=C(NCCN1CCOCC1)NC1CCCCC1` gave a kinetic solubility of 38.5 µg/mL (≈ 142 µM).

The compound `COc1cccc(N=Cc2nc(-c3ccccc3)oc2OC(C)=O)c1` came in with a kinetic solubility of 10.1 µg/mL (≈ 30 µM).

`N#C/C(=C\c1c(F)cccc1Cl)S(=O)(=O)c1ccccn1` showed a solubility (kinetic) of 36.2 µg/mL (≈ 112 µM).

`CC(=O)C1=C(Nc2ccccc2)CC(C)(O)C(C(C)=O)C1c1ccccc1` (stereo unspecified) gave a solubility (kinetic) of 4.1 µg/mL (≈ 11.3 µM).

As for `CN(C)CCCN1c2ccccc2Sc2ccccc21.Cl`, the solubility (kinetic) is over 48.1 µg/mL.

For the compound `COC(=O)[C@H](C)NC(=O)NCCC1=CCCCC1`, the kinetic solubility is over 38.1 µg/mL.

On to `Cc1cnc(=O)[nH]c1SCc1cccc([N+](=O)[O-])c1`, for which the solubility (kinetic) was determined as 5.6 µg/mL (≈ 20.2 µM).

For `Cl.c1ccc2c(c1)CCCC2C1=NCCN1` (stereo unspecified), the kinetic solubility was over 35.5 µg/mL.

`CCC(CC)COC(=O)C1=C(C)NC(=O)NC1c1ccc(OC)cc1` (stereo unspecified) had a solubility (kinetic) of 3 µg/mL (≈ 8.66 µM).

The compound `Cc1cccc(OCCSc2nc3ncnc(N)c3[nH]2)c1` registered a solubility (kinetic) of 1.5 µg/mL (≈ 4.98 µM).

For the compound `COc1cccc(-c2cc(C(=O)NCC3CCCO3)on2)c1` (stereo unspecified), the solubility (kinetic) was over 45.3 µg/mL.

The compound `Nc1nc(N)n(-c2ccccc2)c(=Nc2ccccc2)n1` yielded a kinetic solubility of over 41.7 µg/mL.

`O=C(C1CCCCC1)N1CCN(c2nc(-c3ccc(F)cc3)cs2)CC1` showed a solubility (kinetic) of 1.5 µg/mL (≈ 4.02 µM).

`Cc1cc(Sc2nc(N(C)C)nc(N(C)C)n2)nc(Cl)n1` yielded a kinetic solubility of 1 µg/mL (≈ 3.07 µM).

Compound `CC(Sc1nnc(C(F)(F)F)n1C)C(=O)Nc1ccc(N2CCOCC2)cc1` (stereo unspecified) gave a solubility (kinetic) of over 62.3 µg/mL.

On to `COc1ccccc1C(=O)NCCOc1ccc(C(C)(C)C)cc1`, for which the solubility (kinetic) was found to be 2.7 µg/mL (≈ 8.25 µM).

`O=[N+]([O-])c1ccc(Nc2nccc(Cl)n2)cc1` displayed a solubility (kinetic) of 1.4 µg/mL (≈ 5.59 µM).

On to `Clc1ccccc1-c1csc(Nc2cccnc2)n1`, for which the solubility (kinetic) is 0.3 µg/mL (≈ 1.04 µM).

`O=C(NCCOC(=O)c1ccccc1)c1ccc([N+](=O)[O-])cc1` returned a kinetic solubility of 14 µg/mL (≈ 44.5 µM).

Consider `O=C(NC(=S)NCc1ccccc1Cl)c1cccs1`, for which the solubility (kinetic) turned out to be 3.2 µg/mL (≈ 10.3 µM).

`O=C(Nc1nccs1)C1CC(=O)N(c2ccc(Cl)cc2)C1` (stereo unspecified): the solubility (kinetic) is 4.1 µg/mL (≈ 12.7 µM).

The compound `COc1ccccc1NS(=O)(=O)c1cccc(NC(=O)c2cncc(Br)c2)c1` gave a kinetic solubility of 6.4 µg/mL (≈ 13.8 µM).

Take `COc1ccc(OC)c(NC(=S)N2c3ccccc3CC2C)c1` (stereo unspecified): the kinetic solubility was found to be 7.6 µg/mL (≈ 23.1 µM).

One may read the solubility (kinetic) as solubility judged after dilution from a stock solution rather than from solid.
